Results taken from patent US20230105212A1, “BIPHENYL DERIVATIVE INHIBITOR, PREPARATION METHOD THEREFOR AND USE THEREOF” (SHANGHAI HANSOH BIOMEDICAL CO., LTD., priority 2020, published 2023).
pEC50, pIC50: −log10 of the molar value.

Tests used:
[1] = biological target: T1, human PD-1/PD-L1 binding (Homo sapiens, UniProt Q9NZQ7); assay: Inhibition of human PD-1/PD-L1 binding (TR-FRET/HTRF); conditions: TR-FRET, PD-L1-His and PD-1-Fc; read-out: PD-1/PD-L1 binding IC50
T1 construct: PD-L1-His protein (19 to 238 amino acids) (Abcam #ab167713); purchased Abcam (PD-L1-His); R&D (PD-1-Fc) ab167713; 1086-PD
T1 sequence (Q9NZQ7 19-238): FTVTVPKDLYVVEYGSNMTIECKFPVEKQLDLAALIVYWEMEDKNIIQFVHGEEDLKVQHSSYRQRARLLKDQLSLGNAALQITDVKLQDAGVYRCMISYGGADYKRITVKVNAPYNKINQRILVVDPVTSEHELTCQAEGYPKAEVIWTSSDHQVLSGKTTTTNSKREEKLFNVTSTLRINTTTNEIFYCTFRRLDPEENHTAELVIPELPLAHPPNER
Method in brief: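 PD-L1-His (aa 19–238, diluted to 10 nM) and PD-1-Fc (aa 25–167, diluted to 20 nM) incubated with compounds (10 μM or 1 μM top, 3-fold, 11 doses) 60 min at room temperature, then anti-6HIS Eu cryptate/anti-human IgG-XL665 added for 3 h RT or overnight 4 °C. HTRF 665/620 nm ratio gave inhibition and IC50.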

[2] = system: CHO-PDL1/Jurkat-PD1 cell pathway; assay: Inhibition of CHO-PDL1/Jurkat-PD1 cell pathway (NFAT luciferase reporter); format: cell-based; conditions: for pEC50: 6 hours incubation, luciferase signal; for maximal fold induction: relative to the signal value of the non-dosed group, read-out: Maximum induction fold
Procedure: Test Embodiment 3. Inhibitory Effect of the Compounds of the Present Disclosure on CHO-PDL1/Jurkat-PD1 Cell Pathway
Experimental purpose: The purpose of this test embodiment was to test the inhibitory effect of compounds on the CHO-PDL1/Jurkat-PD1 cell pathway.
Experimental method: Two stably transfected cell lines were included in this experiment, CHO-K1 cells stably transfected with PD-L1 and Jurkat cells stably transfected with PD-1 and NFAT luciferase reporter genes. Compounds were incubated with the two cell lines. Then, due to the inhibitory effect on the PD-1/PD-L1 pathway, the activation degree of Jurkat cells changed, so that the level of the reporter gene NFAT in the downstream of Jurkat cells changed, and the level of NFAT was characterized by detecting the signal value of luciferase, so that the inhibitory effect of the test compound on CHO-PDL1/Jurkat-PD1 pathway was characterized.
CHO-PDL1 cells (Promega, #J1252) were cultured to a suitable cell density. After digestion, the cells were resuspended by complete medium to become a suitable density of cell suspension. The cell suspension was plated 100 μL per well on a 96-well plate (Corning, #3610), and placed in a 37° C., 5% CO2 incubator and incubated overnight, and assay medium (RPMI 1640+2% FBS, RPMI 1640 Cat. No.: Gibco, #22400089, FBS Cat. No.: Gibco, #10091148) was used to prepare compound solutions of different concentrations. NFAT-luc2/PD1 Jurkat cells (Promega, #J1252) were collected and resuspended to the appropriate cell density using assay medium. The supernatant of the CHO-PDL1 cell culture plate was aspirated, and 40 μL of the prepared compound solution and 40 μL of resuspended NFAT-luc2/PD1 Jurkat cells were added, and incubated in a 5% CO2 incubator at 37° C. for 6 hours, and the cell plate was taken out, then 40 μL of One-Glo reagent (Promega, #E6120) was added to each well, shaked and mixed well, incubated in the dark at room temperature for 10 minutes, then put into a microplate reader and the luminescence program was used to read the luminescence value of the cell plate.
The EC50 value was fitted according to the compound concentration and the luminescence signal value, and the maximum induction fold of each compound relative to the signal value of the non-dosed group was calculated, as shown in Table 3.

[3] = biological target: T2, PD-L1 protein on the surface of MC38-hPDL1 tumor cells (Homo sapiens, UniProt Q9NZQ7); assay: Induction of endocytosis of PD-L1 on the surface of tumor cells (flow cytometry); format: cell-based; conditions: 16 hours incubation; for Emax: MC38-hPDL1 cells, read-out: MC38 maximum endocytosis rate; for pIC50: inducing endocytosis of PD-L1, MC38-hPDL1 cells, read-out: MC38 IC50
T2 construct: expressed in transfected cells; host or cells: MC38-hPDL1 (mouse colon cancer cells)
T2 sequence (Q9NZQ7 19-290): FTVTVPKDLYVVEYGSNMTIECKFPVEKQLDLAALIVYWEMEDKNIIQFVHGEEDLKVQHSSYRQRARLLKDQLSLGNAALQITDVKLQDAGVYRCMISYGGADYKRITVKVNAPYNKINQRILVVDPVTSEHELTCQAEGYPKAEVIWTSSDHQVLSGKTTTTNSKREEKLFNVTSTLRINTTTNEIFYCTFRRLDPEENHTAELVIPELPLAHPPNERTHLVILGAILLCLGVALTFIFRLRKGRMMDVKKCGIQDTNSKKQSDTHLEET
Method in brief: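 IC50 comes from nonlinear fits of endocytosis rate, calculated from the loss of surface PE-anti-CD274 flow signal relative to vehicle. Cells were MC38 mouse colon cancer cells engineered to express high human PD-L1. Compound exposure lasted 16 h at 37 °C, 5% CO2.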

[4] = Pharmacokinetics test in Balb/C mice; format: in vivo; conditions: male, mouse, po, p.o. 5 mg/kg, plasma
Procedure: Test Embodiment 6. Pharmacokinetics Test in Balb/C Mice
Taking Balb/C mice as the test animals, the pharmacokinetic behavior in the plasma of mice of the following compound embodiments was studied when orally administered at a dose of 5 mg/kg.
Balb/C Mouse 6/embodiment, male, Shanghai Jisijie Laboratory Animal Co., Ltd., animal production license number (SCXK (Shanghai) 2013-0006 No. 311620400001794).
0.5% HPMC (1% Tween 80), dissolved by sonication, to prepare a clear solution or a homogeneous suspension.
Balb/C mice, male; p.o. after overnight fasting, respectively, at a dose of 5 mg/kg, administered in a volume of 10 mL/kg.
Before and after administration of mice, at 0, 0.5, 1, 2, 4, 6, 8 and 24 hours, 0.1 mL of blood was collected from the orbit, placed in an EDTA-K2 test tube, and centrifuged at 6000 rpm at 4° C. for 6 min to separate the plasma, stored at −80° C.
1) 40 μL of plasma samples were added to 160 μL of acetonitrile for precipitation, mixed and centrifuged at 3500×g for 5 to 20 minutes.
2) 100 μL of the supernatant solution after treatment was taken for LC/MS/MS to analyze the concentration of the compounds to be tested.
2.6 Liquid Phase Analysis • Liquid phase condition: Shimadzu LC-20AD pump • MS conditions: AB Sciex API 4000 Mass Spectrometer • Chromatographic column: phenomenex Gemiu 5 μm C18 50×4.6 mm • Mobile phase: A solution was aqueous 0.1% formic acid solution, B solution was acetonitrile • Flow rate: 0.8 mL/min • Elution time: 0 to 4.0 minutes, the eluent was as follows:
The main parameters of pharmacokinetics were calculated with WinNonlin 8.2, and the results of the mice pharmacokinetic experiments were shown in the following table: […]

[5] = biological target: T3, human PD-L1 protein (Homo sapiens, UniProt Q9NZQ7); assay: Thermal shift: melting temperature of PD-L1 protein; format: binding; conditions: compound 10 μM, PD-L1 protein 2 μM, Tm minus DMSO vehicle control; read-out: ΔTm (° C.)
T3 construct: purchased Acro Biosystems PD1-H5229
T3 sequence (Q9NZQ7 19-238 limits assumed): as the sequence (Q9NZQ7 19-238) above
Method in brief: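 Human PD-L1 at 2 μM final was tested in […], 150 mM NaCl with SYPRO Orange, heated 25→95 °C at 0.03 °C/s in a PCR melt-curve run. Tm was taken per treatment; ΔTm is the shift relative to DMSO vehicle.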

Structure (SMILES) | pIC50 [1] | pEC50 [2] | maximal fold induction [2] | Emax [3] [%] | pIC50 [3] | MRT inf ([4]; read-out: Average residence time MRT0−∞) [h] | AUC(0-t) ([4]; read-out: Curve area AUC0−t) [ng·h/mL] | Cmax ([4]; read-out: Drug concentration in plasma Cmax) [ng/mL] | half-life ([4]; read-out: Half life t1/2 (converted)) [h] | Tmax ([4]; read-out: Peak time tmax) [h] | ΔTm at 10 µM [5] [°C]
COc1cc(C(=O)Nc2cccc(-c3cccc(NC(=O)c4nc5c(n4C)CCN(C)C5)c3Cl)c2C)ncc1CNCC(C)O (stereo in doubt) [Embodiment 38, (S)—N-(2-Chloro-3′-(5-(((2-hydroxypropyl)amino)methyl)-4-methoxypicolinamido)-2′-methyl-[1,1′-biphenyl]-3-yl)-1,5-dimethyl-4,5,6,7-tetrahydro-1H-imidazo[4,5-c]pyridine-2-carboxamide] | 8.55 | 7.34 | 3.7 | 96 | 9.22 | – | – | – | – | – | –
COc1cc(C(=O)Nc2cccc(-c3cccc(NC(=O)c4nc5c(n4C)CCN(C)C5)c3Cl)c2C)ncc1CNc1ccnc(C)c1F [Embodiment 6, N-(2-Chloro-3′-(5-(((3-fluoro-2-methylpyridin-4-yl)amino)methyl)-4-methoxypicolinamido)-2′-methyl-[1,1′-biphenyl]-3-yl)-1,5-dimethyl-4,5,6,7-tetrahydro-1H-imidazo[4,5-c]pyridine-2-carboxamide] | – | 7.22 | 3.3 | 93 | 8.96 | – | – | – | – | – | –
COc1cc(C(=O)Nc2cccc(-c3cccc(NC(=O)c4nc5c(n4C)CCN(C)C5)c3Cl)c2C)ncc1CN1CC[C@H](F)C1 [Embodiment 26, (S)—N-(2-Chloro-3′-(5-((3-fluoropyrrolidin-1-yl)methyl)-4-methoxypicolinamido)-2′-methyl-[1,1′-biphenyl]-3-yl)-1,5-dimethyl-4,5,6,7-tetrahydro-1H-imidazo[4,5-c]pyridine-2-carboxamide] | – | 7.05 | 3.9 | – | – | – | – | – | – | – | –
COc1cc(C(=O)Nc2cccc(-c3cccc(NC(=O)c4nc5c(n4C)CCN(C)C5)c3Cl)c2C)ncc1CNC1COC1 [Embodiment 36, N-(2-Chloro-3′-(4-methoxy-5-((oxetan-3-ylamino)methyl)picolinamido)-2′-methyl-[1,1′-biphenyl]-3-yl)-1,5-dimethyl-4,5,6,7-tetrahydro-1H-imidazo[4,5-c]pyridine-2-carboxamide] | 8.30 | 7.03 | 3.1 | 94 | 8.51 | – | – | – | – | – | –
COc1cc(C(=O)Nc2cccc(-c3cccc(NC(=O)c4nc5c(n4C)CCN(C)C5)c3Cl)c2C)ncc1CNCCO [Embodiment 37, N-(2-Chloro-3′-(5-(((2-hydroxyethyl)amino)methyl)-4-methoxypicolinamido)-2′-methyl-[1,1′-biphenyl]-3-yl)-1,5-dimethyl-4,5,6,7-tetrahydro-1H-imidazo[4,5-c]pyridine-2-carboxamide] | 8.82 | 7.20 | 4.8 | 97 | 9.22 | – | – | – | – | – | –
COc1cc(C(=O)Nc2cccc(-c3cccc(NC(=O)c4nc5c(n4C)CCN(C)C5)c3Cl)c2C)ncc1CNCCNC(C)=O [Embodiment 40, N-(3′-(5-(((2-Acetylaminoethyl)amino)methyl)-4-methoxypicolinamido)-2-chloro-2′-methyl-[1,1′-biphenyl]-3-yl)-1,5-dimethyl-4,5,6,7-tetrahydro-1H-imidazo[4,5-c]pyridine-2-carboxamide] | 8.70 | 7.12 | 4 | 97 | 8.85 | – | – | – | – | – | –
COc1cc(NCc2cnc(C(=O)Nc3cccc(-c4cccc(NC(=O)c5nc6c(n5C)CCN(CCO)C6)c4Cl)c3C)cc2OC)ccn1 [Embodiment 72, N-(2-Chloro-3′-(4-methoxy-5-(((2-methoxypyridin-4-yl)amino)methyl)picolinamido)-2′-methyl-[1,1′-biphenyl]-3-yl)-5-(2-hydroxyethyl)-1-methyl-4,5,6,7-tetrahydro-1H-imidazo[4,5-c]pyridine-2-carboxamide] | – | 7.14 | 3.1 | 88 | 8.19 | – | – | – | – | – | –
CCN1CCc2c(nc(C(=O)Nc3cccc(-c4cccc(NC(=O)c5cc(OC)c(CNc6ccnc(C)c6F)cn5)c4C)c3Cl)n2C)C1 [Embodiment 78, N-(2-Chloro-3′-(5-(((3-fluoro-2-methylpyridin-4-yl)amino)methyl)-4-methoxypicolinamido)-2′-methyl-[1,1′-biphenyl]-3-yl)-5-ethyl-1-methyl-4,5,6,7-tetrahydro-1H-imidazo[4,5-c]pyridine-2-carboxamide] | – | 7.17 | 2.8 | – | – | – | – | – | – | – | –
COc1nc(-c2cccc(-c3cccc(NC(=O)c4nc5c(n4C)CCN(C)C5)c3Cl)c2Cl)ccc1CN[C@@H]1CCCC[C@@H]1O [Embodiment 176, N-(2,2′-Dichloro-3′-(5-((((1R,2S)-2-hydroxycyclohexyl)amino)methyl)-6-methoxypyridin-2-yl)-[1,1′-biphenyl]-3-yl)-1,5-dimethyl-4,5,6,7-tetrahydro-1H-imidazo[4,5-c]pyridine-2-carboxamide] | – | – | – | 97 | 8.92 | 21.6 | 629 | 55 | 15.2 | 2 | 24.3
COc1nc(-c2cccc(-c3cccc(NC(=O)c4nc5c(n4C4CC4)CCN(C)C5)c3Cl)c2Cl)ccc1CN1CC2(CC(NC(C)=O)C2)C1 [Embodiment 246, N-(3′-(5-((6-Acetylamino-2-azaspiro[3.3]heptan-2-yl)methyl)-6-methoxypyridin-2-yl)-2,2′-dichloro-[1,1′-biphenyl]-3-yl)-1-cyclopropyl-5-methyl-4,5,6,7-tetrahydro-1H-imidazo[4,5-c]pyridine-2-carboxamide] | 8.27 | – | – | 94 | – | – | – | – | – | – | 11
